Reference: US20230123334A1, “AMINO LIPID COMPOUND, PREPARATION METHOD THEREFOR, AND APPLICATION THEREOF” (SHENZHEN SHENXIN BIOTECHNOLOGY CO., LTD., priority 2020, published 2023)

Each compound was assayed on HEK293 cells (assay: Preliminary screening as DNA vectors, GFP transfection of HEK293 cells). Conditions: amino lipid/DOPE liposome with 75 ng plasmid DNA (psin-EGFP-IRES-Puro); number of GFP-expressing cells divided by total nuclei (Hoechst).
Assay type: cell-based
Outline: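 Lipid + DOPE liposomes (NaOAc, pH 5.6) complexed w/ 75 ng psin-EGFP-IRES-Puro, 30 min RT; added to 3-5×10^4 HEK293/well, 37° C. Hoechst 0.2 μg/mL at 20-24 h, imaged after further 20-24 h. Efficiency = GFP+ cells / total nuclei.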

| Compound | Absolute DNA transfection efficiency in HEK293 cells |
| --- | --- |
| CCCCCCCCCCCCCCCSc1nc(NCCCCCCC)nc(NCCN2CCCCC2)n1 [S15N7 D4] | 8.1% |
| CCCCCCCCCCCCCCCSc1nc(NCCCCCCC)nc(NCCN2CCN(C)CC2)n1 [S15N7 D5] | 12.9% |
| CCCCCCCCCCCCCCCSc1nc(NCCCCCCC)nc(NCCCN(C)C)n1 [S15N7 D6] | 32.1% |
| CCCCCCCCCCCCCCCSc1nc(NCCCCCCC)nc(NCCN(CC)CC)n1 [S15N7 D7] | 13.3% |
| CCCCCCCCCCCCCCCSc1nc(NCCCCCCC)nc(NCCCN2CCOCC2)n1 [S15N7 D8] | 14.5% |
| CCCCCCCCCCCCCCCSc1nc(NCCCCCCC)nc(NCCCN2CCN(C)CC2)n1 [S15N7 D9] | 17.1% |
| CCCCCCCCCCCCCCCSc1nc(NCCCCCCC)nc(NCC2CCN(C)CC2)n1 [S15N7 D10] | 33.4% |
| CCCCCCCCCCCCCCCSc1nc(NCCCCCCCC)nc(NCCN(C)C)n1 [S15N8 D1] | 8.9% |
| CCCCCCCCCCCCCCCSc1nc(NCCCCCCCC)nc(NCCN2CCOCC2)n1 [S15N8 D2] | 19.3% |
| CCCCCCCCCCCCCCCSc1nc(NCCCCCCCC)nc(NCCN2CCCC2)n1 [S15N8 D3] | 12.7% |
| CCCCCCCCCCCCCCCSc1nc(NCCCCCCCC)nc(NCCN2CCCCC2)n1 [S15N8 D4] | 3.0% |
| CCCCCCCCCCCCCCCSc1nc(NCCCCCCCC)nc(NCCN2CCN(C)CC2)n1 [S15N8 D5] | 17.3% |
| CCCCCCCCCCCCCCCSc1nc(NCCCCCCCC)nc(NCCCN(C)C)n1 [S15N8 D6] | 23.9% |
| CCCCCCCCCCCCCCCSc1nc(NCCCCCCCC)nc(NCCN(CC)CC)n1 [S15N8 D7] | 6.7% |
| CCCCCCCCCCCCCCCSc1nc(NCCCCCCCC)nc(NCCCN2CCOCC2)n1 [S15N8 D8] | 7.9% |
| CCCCCCCCCCCCCCCSc1nc(NCCCCCCCC)nc(NCCCN2CCN(C)CC2)n1 [S15N8 D9] | 11.6% |
| CCCCCCCCCCCCCCCSc1nc(NCCCCCCCC)nc(NCC2CCN(C)CC2)n1 [S15N8 D10] | 19.4% |
| CCCCCCCCCCCCCCCSc1nc(NCCCCCCCCC)nc(NCCN(C)C)n1 [S15N9 D1] | 21.3% |
| CCCCCCCCCCCCCCCSc1nc(NCCCCCCCCC)nc(NCCN2CCOCC2)n1 [S15N9 D2] | 9.7% |
| CCCCCCCCCCCCCCCSc1nc(NCCCCCCCCC)nc(NCCN2CCCC2)n1 [S15N9 D3] | 30.1% |
| CCCCCCCCCCCCCCCSc1nc(NCCCCCCCCC)nc(NCCN2CCCCC2)n1 [S15N9 D4] | 4.5% |
| CCCCCCCCCCCCCCCSc1nc(NCCCCCCCCC)nc(NCCN2CCN(C)CC2)n1 [S15N9 D5] | 17.5% |
| CCCCCCCCCCCCCCCSc1nc(NCCCCCCCCC)nc(NCCCN(C)C)n1 [S15N9 D6] | 23.1% |
| CCCCCCCCCCCCCCCSc1nc(NCCCCCCCCC)nc(NCCN(CC)CC)n1 [S15N9 D7] | 16.4% |

| Compound | Absolute DNA transfection efficiency in HEK293 cells |
| --- | --- |
| CCCCCCCCCCCCCCCSc1nc(NCCCCCCCCC)nc(NCCCN2CCOCC2)n1 [S15N9 D8] | 10.1% |
| CCCCCCCCCCCCCCCSc1nc(NCCCCCCCCC)nc(NCCCN2CCN(C)CC2)n1 [S15N9 D9] | 13.4% |
| CCCCCCCCCCCCCCCSc1nc(NCCCCCCCCC)nc(NCC2CCN(C)CC2)n1 [S15N9 D10] | 35.1% |
| CCCCCCCCCCCCCCCSc1nc(NCCCCCCCCCCC)nc(NCCN(C)C)n1 [S15N11 D1] | 12.9% |
| CCCCCCCCCCCCCCCSc1nc(NCCCCCCCCCCC)nc(NCCN2CCOCC2)n1 [S15N11 D2] | 19.3% |
| CCCCCCCCCCCCCCCSc1nc(NCCCCCCCCCCC)nc(NCCN2CCCC2)n1 [S15N11 D3] | 20.9% |
| CCCCCCCCCCCCCCCSc1nc(NCCCCCCCCCCC)nc(NCCN2CCCCC2)n1 [S15N11 D4] | 8.9% |
| CCCCCCCCCCCCCCCSc1nc(NCCCCCCCCCCC)nc(NCCN2CCN(C)CC2)n1 [S15N11 D5] | 11.8% |
| CCCCCCCCCCCCCCCSc1nc(NCCCCCCCCCCC)nc(NCCCN(C)C)n1 [S15N11 D6] | 12.9% |
| CCCCCCCCCCCCCCCSc1nc(NCCCCCCCCCCC)nc(NCCN(CC)CC)n1 [S15N11 D7] | 9.3% |
| CCCCCCCCCCCCCCCSc1nc(NCCCCCCCCCCC)nc(NCCCN2CCOCC2)n1 [S15N11 D8] | 6.1% |
| CCCCCCCCCCCCCCCSc1nc(NCCCCCCCCCCC)nc(NCCCN2CCN(C)CC2)n1 [S15N11 D9] | 11.9% |
| CCCCCCCCCCCCCCCSc1nc(NCCCCCCCCCCC)nc(NCC2CCN(C)CC2)n1 [S15N11 D10] | 16.6% |
| CCCCCCCCCCCCCCCSc1nc(NCCCCCCCCCCCC)nc(NCCN(C)C)n1 [S15N12 D1] | 4.9% |
| CCCCCCCCCCCCCCCSc1nc(NCCCCCCCCCCCC)nc(NCCN2CCOCC2)n1 [S15N12 D2] | 0.0% |
| CCCCCCCCCCCCCCCSc1nc(NCCCCCCCCCCCC)nc(NCCN2CCCC2)n1 [S15N12 D3] | 11.5% |
| CCCCCCCCCCCCCCCSc1nc(NCCCCCCCCCCCC)nc(NCCN2CCCCC2)n1 [S15N12 D4] | 0.1% |
| CCCCCCCCCCCCCCCSc1nc(NCCCCCCCCCCCC)nc(NCCN2CCN(C)CC2)n1 [S15N12 D5] | 5.7% |
| CCCCCCCCCCCCCCCSc1nc(NCCCCCCCCCCCC)nc(NCCCN(C)C)n1 [S15N12 D6] | 6.4% |
| CCCCCCCCCCCCCCCSc1nc(NCCCCCCCCCCCC)nc(NCCN(CC)CC)n1 [S15N12 D7] | 5.9% |
| CCCCCCCCCCCCCCCSc1nc(NCCCCCCCCCCCC)nc(NCCCN2CCOCC2)n1 [S15N12 D8] | 1.5% |
| CCCCCCCCCCCCCCCSc1nc(NCCCCCCCCCCCC)nc(NCCCN2CCN(C)CC2)n1 [S15N12 D9] | 3.3% |
| CCCCCCCCCCCCCCCSc1nc(NCCCCCCCCCCCC)nc(NCC2CCN(C)CC2)n1 [S15N12 D10] | 4.3% |
| CCCCCCCCCCCCCCCSc1nc(NCCCCCCCCCCCCC)nc(NCCN(C)C)n1 [S15N13 D1] | 0.4% |

| Compound | Absolute DNA transfection efficiency in HEK293 cells |
| --- | --- |
| CCCCCCCCCCCCCCCSc1nc(NCCCCCCCCCCCCC)nc(NCCN2CCOCC2)n1 [S15N13 D2] | 0.0% |
| CCCCCCCCCCCCCCCSc1nc(NCCCCCCCCCCCCC)nc(NCCN2CCCC2)n1 [S15N13 D3] | 4.2% |
| CCCCCCCCCCCCCCCSc1nc(NCCCCCCCCCCCCC)nc(NCCN2CCCCC2)n1 [S15N13 D4] | 0.0% |
| CCCCCCCCCCCCCCCSc1nc(NCCCCCCCCCCCCC)nc(NCCN2CCN(C)CC2)n1 [S15N13 D5] | 1.9% |
| CCCCCCCCCCCCCCCSc1nc(NCCCCCCCCCCCCC)nc(NCCCN(C)C)n1 [S15N13 D6] | 2.7% |
| CCCCCCCCCCCCCCCSc1nc(NCCCCCCCCCCCCC)nc(NCCN(CC)CC)n1 [S15N13 D7] | 5.5% |
| CCCCCCCCCCCCCCCSc1nc(NCCCCCCCCCCCCC)nc(NCCCN2CCOCC2)n1 [S15N13 D8] | 0.2% |
| CCCCCCCCCCCCCCCSc1nc(NCCCCCCCCCCCCC)nc(NCCCN2CCN(C)CC2)n1 [S15N13 D9] | 3.2% |
| CCCCCCCCCCCCCCCSc1nc(NCCCCCCCCCCCCC)nc(NCC2CCN(C)CC2)n1 [S15N13 D10] | 0.0% |
| CCCCCCCCCCCCCCCNc1nc(NCCN(C)C)nc(SCCCCCCCCCCCCCCC)n1 [S15N15 D1] | 0.6% |
| CCCCCCCCCCCCCCCNc1nc(NCCN2CCOCC2)nc(SCCCCCCCCCCCCCCC)n1 [S15N15 D2] | 0.0% |
| CCCCCCCCCCCCCCCNc1nc(NCCN2CCCC2)nc(SCCCCCCCCCCCCCCC)n1 [S15N15 D3] | 0.8% |
| CCCCCCCCCCCCCCCNc1nc(NCCN2CCCCC2)nc(SCCCCCCCCCCCCCCC)n1 [S15N15 D4] | 0.5% |
| CCCCCCCCCCCCCCCNc1nc(NCCN2CCN(C)CC2)nc(SCCCCCCCCCCCCCCC)n1 [S15N15 D5] | 0.4% |
| CCCCCCCCCCCCCCCNc1nc(NCCCN(C)C)nc(SCCCCCCCCCCCCCCC)n1 [S15N15 D6] | 0.0% |
| CCCCCCCCCCCCCCCNc1nc(NCCN(CC)CC)nc(SCCCCCCCCCCCCCCC)n1 [S15N15 D7] | 0.4% |
| CCCCCCCCCCCCCCCNc1nc(NCCCN2CCOCC2)nc(SCCCCCCCCCCCCCCC)n1 [S15N15 D8] | 0.1% |
| CCCCCCCCCCCCCCCNc1nc(NCCCN2CCN(C)CC2)nc(SCCCCCCCCCCCCCCC)n1 [S15N15 D9] | 0.5% |
| CCCCCCCCCCCCCCCNc1nc(NCC2CCN(C)CC2)nc(SCCCCCCCCCCCCCCC)n1 [S15N15 D10] | 0.3% |
| CCCCCCCCCCCCCCCCNc1nc(NCCN(C)C)nc(SCCCCCCCCCCCCCCC)n1 [S15N16 D1] | 1.3% |
| CCCCCCCCCCCCCCCCNc1nc(NCCN2CCOCC2)nc(SCCCCCCCCCCCCCCC)n1 [S15N16 D2] | 0.0% |
| CCCCCCCCCCCCCCCCNc1nc(NCCN2CCCC2)nc(SCCCCCCCCCCCCCCC)n1 [S15N16 D3] | 0.6% |
